Consider two molecules from BindingDB's records for doi:10.1016/j.bmcl.2004.05.049 (Procyon Biopharma, 2004).

The test addresses T1, Dimer of Gag-Pol polyprotein [501-599] (Human immunodeficiency virus 1, UniProt P03367).
T1 construct: 501-599
Nature of the test: Protease Inhibition Assay. The note with it: pH 4.7; 30 °C. On the procedure: HIV-1 protease activity was measured by a continuous fluorometric assay using the internally quenched fluorogenic substrate DABCYL-Ser-Gln-Asn-Tyr-Pro-Ile-Val-Gln-EDANS. The proteolytic activity can be monitored by the increase in fluorescence intensity, and the protease products were analyzed by HPLC.

`Cc1ccc(S(=O)(=O)N(CC(C)C)[C@@H](CCCCNC(=O)N(CCc2ccccc2)Cc2ccccc2)C(=O)O)cc1` [(2S)-6-{[benzyl(2-phenylethyl)carbamoyl]amino}-2-[(4-methylbenzene)(2-methylpropyl)sulfonamido]hexanoic acid] gave a Ki above 0.3 µM. The result for `Cc1ccc(S(=O)(=O)N(CC(C)C)[C@@H](CCCCNC(=O)NCc2ccccn2)C(=O)O)cc1` [(2S)-2-[(4-methylbenzene)(2-methylpropyl)sulfonamido]-6-{[(pyridin-2-ylmethyl)carbamoyl]amino}hexanoic acid] reads above 0.3 µM.

What is called Ki is a measure of affinity in units of concentration, obtained from inhibition or displacement. A lower Ki goes with tighter binding.
